Results on 16 compounds are retold here after patent publication US20260116921A1, “PEPTIDE INHIBITORS OF INTERLEUKIN-23 RECEPTOR AND THEIR USE TO TREAT INFLAMMATORY DISEASES” (priority 2018, published 2026).

As a reminder, the IC50 is the concentration that gives 50% inhibition.

Each structure is given as a SMILES string. Where only a bound is given, the exact number is not on record here.

In the first experiment the target is T1, IL-23R (Homo sapiens, UniProt Q5VWK5).
T1 sequence (Q5VWK5 24-629): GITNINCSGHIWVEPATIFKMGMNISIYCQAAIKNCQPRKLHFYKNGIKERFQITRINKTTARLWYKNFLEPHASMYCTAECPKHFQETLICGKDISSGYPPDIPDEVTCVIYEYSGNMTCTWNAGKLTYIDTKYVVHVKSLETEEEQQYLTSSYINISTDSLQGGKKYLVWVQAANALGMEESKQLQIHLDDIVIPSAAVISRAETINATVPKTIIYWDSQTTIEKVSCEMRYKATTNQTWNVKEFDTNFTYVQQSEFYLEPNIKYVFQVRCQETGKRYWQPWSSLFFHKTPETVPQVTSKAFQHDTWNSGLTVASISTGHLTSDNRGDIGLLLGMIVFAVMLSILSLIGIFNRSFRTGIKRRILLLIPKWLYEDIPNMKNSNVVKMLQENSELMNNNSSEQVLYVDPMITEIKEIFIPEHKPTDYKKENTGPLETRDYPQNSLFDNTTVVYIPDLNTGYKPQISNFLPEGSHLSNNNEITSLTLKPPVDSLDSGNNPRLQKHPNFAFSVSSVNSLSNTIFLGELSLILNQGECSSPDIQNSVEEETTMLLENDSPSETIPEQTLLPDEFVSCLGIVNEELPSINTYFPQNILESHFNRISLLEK
Briefly: DB cells IL23R pSTAT3 cell assay (pStat3 HTRF). In kind it is cell-based.
Conditions: not given
An excerpt: Human ELISA indicates the IL23-IL23R competitive binding assay described below, Rat ELISA indicates the rat IL-23R competitive binding ELISA assay described below, and pStat3HTRF indicates the DB cells IL-23R pSTAT3 cell assay described below. The peptides depicted in Table E1 are cyclized via a disulfide bridge formed between two Pen residues in these peptides. The peptides depicted in Table E2 are cyclized via a thioether bond between the indicated amino acid residues. Table E2 provides an illustrative structure depicting thioether cyclization, which is indicated in the table by the term “cyclo,” with the cyclic region bracketed immediately following the term “cyclo.” For certain peptides, the residue Abu is present where indicated, whereas in other embodiments, e.g., those related to the non-cyclized form, the Abu may be referred to as a hSer(Cl) or homoSer residue.
DB Cells IL23R pSTAT3 Cell Assay
IL-23 plays a central role in supporting and maintaining Th17 differentiation in vivo. This process is thought to be mediated primarily through the Signal Transducer and Activator of Transcription 3 (STAT3), with phosphorylation of STAT3 (to yield pSTAT3) leading to upregulation of RORC and pro-inflammatory IL-17. This cell assay examines the levels of pSTAT3 in IL-23R-expressing DB cells when stimulated with IL-23 in the presence of test compounds. Serial dilutions of test peptides and IL-23 (Humanzyme #HZ-1261) at a final concentration of 0.5 nM, were added to each well in a 96 well tissue culture plate (Corning #CLS3894). DB cells (ATCC #CRL-2289), cultured in RPMI-1640 medium (Thermo Scientific #11875093) supplemented with 10% FBS, were added at 5×10E5 cells/well and incubated for 30 minutes at 37° C. in a 5% CO2 humidified incubator. Changes in phospho-STAT3 levels in the cell lysates were detected using the Cisbio HTRF pSTAT3 (Tyr705) Cellular Assay Kit (Cisbio #62AT3PEH), according to manufacturer's Two Plate Assay protocol.
A general note: Time-resolved FRET reads energy transfer from a long-lived donor to a nearby acceptor.
For the compound `CC(=O)NCCCC[C@H](NC(=O)[C@](C)(CC(C)C)NC(=O)[C@H](Cc1ccc2ccccc2c1)NC(=O)[C@H](Cc1ccc(OCCN)cc1)NC(=O)[C@H]1NC(=O)[C@H](CCC(N)=O)NC(=O)[C@H](Cc2c[nH]c3ccc(Cl)cc23)NC(=O)[C@H]([C@@H](C)O)NC(=O)[C@H](CC(N)=O)NC(=O)[C@@H](NC(C)=O)C(C)(C)SSC1(C)C)C(=O)N[C@@H](CC(N)=O)C(=O)N[C@@H](CC(N)=O)C(N)=O` [compound 1], the half-inhibitory concentration (IC50) is 10 to 100 nM.

`CC(=O)NCCCC[C@H](NC(=O)[C@](C)(CC(C)C)NC(=O)[C@H](Cc1ccc2ccccc2c1)NC(=O)[C@H](Cc1ccc(OCCN)cc1)NC(=O)[C@H]1NC(=O)[C@H](CCC(N)=O)NC(=O)[C@H](Cc2c[nH]c3cc(F)ccc23)NC(=O)[C@H]([C@@H](C)O)NC(=O)[C@H](CC(N)=O)NC(=O)[C@@H](NC(C)=O)C(C)(C)SSC1(C)C)C(=O)N[C@@H](CC(N)=O)C(=O)N[C@@H](CC(N)=O)C(N)=O` [compound 3] registered a half-inhibitory concentration (IC50) of 10 to 100 nM.

For the compound `COc1ccc2[nH]cc(C[C@@H]3NC(=O)[C@H]([C@@H](C)O)NC(=O)[C@H](CC(N)=O)NC(=O)[C@@H](NC(C)=O)C(C)(C)SSC(C)(C)[C@@H](C(=O)N[C@@H](Cc4ccc(OCCN)cc4)C(=O)N[C@@H](Cc4ccc5ccccc5c4)C(=O)N[C@@](C)(CC(C)C)C(=O)N[C@@H](CCCCNC(C)=O)C(=O)N[C@@H](CC(N)=O)C(=O)N[C@@H](CC(N)=O)C(N)=O)NC(=O)[C@H](CCC(N)=O)NC3=O)c2c1` [compound 9], the half-maximal inhibitory concentration (IC50) is over 100 nM.

In the case of `CC(=O)NCCCC[C@H](NC(=O)[C@](C)(CC(C)C)NC(=O)[C@H](Cc1ccc2ccccc2c1)NC(=O)[C@H](Cc1ccc(OCCN)cc1)NC(=O)[C@H]1NC(=O)[C@H](CCC(N)=O)NC(=O)[C@H](Cc2c[nH]c3ccc(O)cc23)NC(=O)[C@H]([C@@H](C)O)NC(=O)[C@H](CC(N)=O)NC(=O)[C@@H](NC(C)=O)C(C)(C)SSC1(C)C)C(=O)N[C@@H](CC(N)=O)C(=O)N[C@@H](CC(N)=O)C(N)=O` [compound 10], the IC50 is over 100 nM.

As to `CC(=O)NCCCC[C@H](NC(=O)[C@](C)(CC(C)C)NC(=O)[C@H](Cc1ccc2ccccc2c1)NC(=O)[C@H](Cc1ccc(OCCN)cc1)NC(=O)[C@H]1NC(=O)[C@H](CCC(N)=O)NC(=O)[C@H](Cc2c[nH]c3ccc(Br)cc23)NC(=O)[C@H]([C@@H](C)O)NC(=O)[C@H](CC(N)=O)NC(=O)[C@@H](NC(C)=O)C(C)(C)SSC1(C)C)C(=O)N[C@@H](CC(N)=O)C(=O)N[C@@H](CC(N)=O)C(N)=O` [compound 11], the IC50 is over 100 nM.

Regarding `CC(=O)NCCCC[C@H](NC(=O)[C@](C)(CC(C)C)NC(=O)[C@H](Cc1c[nH]c2ccc(Cl)cc12)NC(=O)[C@H](Cc1ccc(OCCN)cc1)NC(=O)[C@H]1NC(=O)[C@H](CCC(N)=O)NC(=O)[C@H](Cc2c[nH]c3ccccc23)NC(=O)[C@H]([C@@H](C)O)NC(=O)[C@H](CC(N)=O)NC(=O)[C@@H](NC(C)=O)C(C)(C)SSC1(C)C)C(=O)N[C@@H](CC(N)=O)C(=O)N[C@@H](CC(N)=O)C(N)=O` [compound 12], the IC50 is over 100 nM.

The compound `COc1cccc2[nH]cc(C[C@H](NC(=O)[C@H](Cc3ccc(OCCN)cc3)NC(=O)[C@H]3NC(=O)[C@H](CCC(N)=O)NC(=O)[C@H](Cc4c[nH]c5ccccc45)NC(=O)[C@H]([C@@H](C)O)NC(=O)[C@H](CC(N)=O)NC(=O)[C@@H](NC(C)=O)C(C)(C)SSC3(C)C)C(=O)N[C@@](C)(CC(C)C)C(=O)N[C@@H](CCCCNC(C)=O)C(=O)N[C@@H](CC(N)=O)C(=O)N[C@@H](CC(N)=O)C(N)=O)c12` [compound 15] displayed an IC50 of over 100 nM.

In the case of `CC(=O)NCCCC[C@H](NC(=O)[C@](C)(CC(C)C)NC(=O)[C@H](Cc1c[nH]c2cc(C)ccc12)NC(=O)[C@H](Cc1ccc(OCCN)cc1)NC(=O)[C@H]1NC(=O)[C@H](CCC(N)=O)NC(=O)[C@H](Cc2c[nH]c3ccccc23)NC(=O)[C@H]([C@@H](C)O)NC(=O)[C@H](CC(N)=O)NC(=O)[C@@H](NC(C)=O)C(C)(C)SSC1(C)C)C(=O)N[C@@H](CC(N)=O)C(=O)N[C@@H](CC(N)=O)C(N)=O` [compound 16], the half-inhibitory concentration (IC50) lay within 1 to 10 nM.

`CC(=O)NCCCC[C@H](NC(=O)[C@](C)(CC(C)C)NC(=O)[C@H](Cc1c[nH]c2c(C)cccc12)NC(=O)[C@H](Cc1ccc(OCCN)cc1)NC(=O)[C@H]1NC(=O)[C@H](CCC(N)=O)NC(=O)[C@H](Cc2c[nH]c3ccccc23)NC(=O)[C@H]([C@@H](C)O)NC(=O)[C@H](CC(N)=O)NC(=O)[C@@H](NC(C)=O)C(C)(C)SSC1(C)C)C(=O)N[C@@H](CC(N)=O)C(=O)N[C@@H](CC(N)=O)C(N)=O` [compound 17] returned a concentration for half-maximal inhibition (IC50) of 10 to 100 nM.

Regarding `CC(=O)NCCCC[C@H](NC(=O)[C@](C)(CC(C)C)NC(=O)[C@H](Cc1c[nH]c2ccc(F)cc12)NC(=O)[C@H](Cc1ccc(OCCN)cc1)NC(=O)[C@H]1NC(=O)[C@H](CCC(N)=O)NC(=O)[C@H](Cc2c[nH]c3ccccc23)NC(=O)[C@H]([C@@H](C)O)NC(=O)[C@H](CC(N)=O)NC(=O)[C@@H](NC(C)=O)C(C)(C)SSC1(C)C)C(=O)N[C@@H](CC(N)=O)C(=O)N[C@@H](CC(N)=O)C(N)=O` [compound 18], the IC50 is 10 to 100 nM.

In turn, `CC(=O)NCCCC[C@H](NC(=O)[C@](C)(CC(C)C)NC(=O)[C@H](Cc1c[nH]c2c(F)cccc12)NC(=O)[C@H](Cc1ccc(OCCN)cc1)NC(=O)[C@H]1NC(=O)[C@H](CCC(N)=O)NC(=O)[C@H](Cc2c[nH]c3ccccc23)NC(=O)[C@H]([C@@H](C)O)NC(=O)[C@H](CC(N)=O)NC(=O)[C@@H](NC(C)=O)C(C)(C)SSC1(C)C)C(=O)N[C@@H](CC(N)=O)C(=O)N[C@@H](CC(N)=O)C(N)=O` [compound 19] registered an IC50 of 10 to 100 nM.

Consider `COc1ccc2[nH]cc(C[C@H](NC(=O)[C@H](Cc3ccc(OCCN)cc3)NC(=O)[C@H]3NC(=O)[C@H](CCC(N)=O)NC(=O)[C@H](Cc4c[nH]c5ccccc45)NC(=O)[C@H]([C@@H](C)O)NC(=O)[C@H](CC(N)=O)NC(=O)[C@@H](NC(C)=O)C(C)(C)SSC3(C)C)C(=O)N[C@@](C)(CC(C)C)C(=O)N[C@@H](CCCCNC(C)=O)C(=O)N[C@@H](CC(N)=O)C(=O)N[C@@H](CC(N)=O)C(N)=O)c2c1` [compound 20], for which the IC50 was in the range of 10 to 100 nM.

Compound `CC(=O)NCCCC[C@H](NC(=O)[C@](C)(CC(C)C)NC(=O)[C@H](Cc1c[nH]c2ccc(O)cc12)NC(=O)[C@H](Cc1ccc(OCCN)cc1)NC(=O)[C@H]1NC(=O)[C@H](CCC(N)=O)NC(=O)[C@H](Cc2c[nH]c3ccccc23)NC(=O)[C@H]([C@@H](C)O)NC(=O)[C@H](CC(N)=O)NC(=O)[C@@H](NC(C)=O)C(C)(C)SSC1(C)C)C(=O)N[C@@H](CC(N)=O)C(=O)N[C@@H](CC(N)=O)C(N)=O` [compound 21] showed an IC50 of over 100 nM.

Compound `CC(=O)NCCCC[C@H](NC(=O)[C@](C)(CC(C)C)NC(=O)[C@H](Cc1c[nH]c2ccc(Br)cc12)NC(=O)[C@H](Cc1ccc(OCCN)cc1)NC(=O)[C@H]1NC(=O)[C@H](CCC(N)=O)NC(=O)[C@H](Cc2c[nH]c3ccccc23)NC(=O)[C@H]([C@@H](C)O)NC(=O)[C@H](CC(N)=O)NC(=O)[C@@H](NC(C)=O)C(C)(C)SSC1(C)C)C(=O)N[C@@H](CC(N)=O)C(=O)N[C@@H](CC(N)=O)C(N)=O` [compound 22] returned an IC50 of 1 to 10 nM.

In turn, `CC(=O)NCCCC[C@H](NC(=O)C1(NC(=O)[C@H](Cc2ccc3ccccc3c2)NC(=O)[C@H](Cc2ccc(OCCN)cc2)NC(=O)[C@@H]2CSCC[C@H](NC(C)=O)C(=O)N[C@@H](CCC(N)=O)C(=O)N[C@@H]([C@@H](C)O)C(=O)N[C@@H](Cc3c[nH]c4c(C)cccc34)C(=O)N[C@@H](CCC(N)=O)C(=O)N2)CCOCC1)C(=O)N[C@@H](CC(N)=O)C(=O)N[C@@H](CC(N)=O)C(N)=O` [compound 30] returned a half-inhibitory concentration (IC50) of 1 to 10 nM.

The experiment is the same for the next values; noted with them: Table E3; DB cells, IL-23 0.5 nM, 30 minutes at 37° C.; read-out: pStat3 HTRF (IC50).
Consider `CC(=O)N[C@H](CCCNC(=N)N)C(=O)N[C@H]1CCSC[C@@H](C(=O)N[C@@H](Cc2ccc(OCCN)cc2)C(=O)N[C@@H](Cc2ccc3ccccc3c2)C(=O)NC2(C(=O)N[C@@H](CCC(=O)O)C(=O)N[C@@H](CC(N)=O)C(=O)NCCC(N)=O)CCOCC2)NC(=O)[C@H](CCC(N)=O)NC(=O)[C@H](Cc2c[nH]c3c(C)cccc23)NC(=O)[C@H]([C@@H](C)O)NC(=O)[C@H](CCC(N)=O)NC1=O` [compound 203], for which the half-inhibitory concentration (IC50) was 1 to 10 nM.
